Experimental data as given in patent publication US20250114353A1, “Combination Treatment Regimens - SMARCA2 Degrader With Gemcitabine” (priority 2023, published 2025).

Test system: NCI-H838 tumors
Test: NCI-H838 tumor bearing mouse model (SMARCA4-deficient lung cancer xenograft), tumor growth inhibition
Format: in vivo
Settings: NOD/SCID female mice, NCI-H838-#5 s.c. xenograft, versus vehicle
Procedure: NOD/SCID female mice were inoculated subcutaneously with NCI-H838-#5 cells (5×10^6) into the right flank in PBS 0.1 ml mixed with Matrigel.
As used herein, tumor growth inhibition is calculated as follows: Mean % Inhibition=(mean(C)−mean(T))/mean(C)*100%, wherein C is the tumor volume in the control arm, and T is the tumor volume in the treatment arm.
The NCI-H838-#5 tumor cells are maintained in vitro with RPMI1640 medium supplemented with 10% fetal bovine serum at 37° C. in an atmosphere of 5% CO2 in air. The cells in exponential growth phase are harvested and quantitated by cell counter before tumor inoculation. NOD-SCID female mice are inoculated subcutaneously in the right front flank region with NCI-H838-#5 tumor cells (5×10^6) in 0.1 ml of PBS mixed with Matrigel (1:1) for tumor development. The randomization is performed when the mean tumor size reaches approximately 100-150 mm^3.
For the NCI-H838 CDX model, mice are inoculated subcutaneously with the NCI-H838 tumor cells (5×10^6).

SMILES | tumor growth inhibition (TGI) (single agent Formula (I) 100 mg/kg s.c. Q3D) | tumor growth inhibition (TGI) (single agent gemcitabine 100 mg/kg i.v. BIW)
Cc1ncsc1-c1ccc([C@H](C)NC(=O)[C@@H]2C[C@@H](O)CN2C(=O)[C@@H](c2cc(O[C@@H](C)CN3CC[C@@H](N4CCN5c6cc(-c7ccccc7O)nnc6NC[C@H]5C4)C3)no2)C(C)C)cc1 [Formula (I)] | significantly inhibits the growth of NCI-H838 tumors | –
Nc1ccn([C@@H]2O[C@H](CO)[C@@H](O)C2(F)F)c(=O)n1 [gemcitabine, 4-amino-1-((2R,4R,5R)-3,3-difluoro-4-hydroxy-5-(hydroxymethyl)tetrahydrofuran-2-yl)pyrimidin-2(1H)-one] | – | significant tumor growth inhibition
